Measured values reported in ChEMBL document CHEMBL1201862, “PubChem BioAssay data set” (2004).
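96-well plates; 48 h exposure; 5 concentrations. Endpoints by linear interpolation between flanking doses. Not reached: highest tested concentration assigned. Here, GI50 denotes the concentration required for 50% inhibition of growth.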 Activity calls are given as the source filed them. No stated cut-off is given here; in the data, active = GI50 up to about 1.1 µM and inactive = higher.

Key:
Assay in all cases: inhibition of tumour cell growth, NCI panel, 48 h
786-0 = system: 786-0
A498 = system: A498
ACHN = system: ACHN
CAKI-1 = system: CAKI-1
EKVX = system: EKVX
HCT-116 = system: HCT-116
HCT-15 = system: HCT-15
HOP-92 = system: HOP-92
IGROV-1 = system: IGROV-1
MDA-MB-435 = system: MDA-MB-435
NCI-H460 = system: NCI-H460
NCI/ADR-RES = system: NCI/ADR-RES
OVCAR-3 = system: OVCAR-3
OVCAR-8 = system: OVCAR-8
RPMI-8226 = system: RPMI-8226
SF-295 = system: SF-295
SK-MEL-2 = system: SK-MEL-2
SR = system: SR
TK-10 = system: TK-10
UACC-257 = system: UACC-257

Compound: Cc1ccc(C(=O)Nc2ccc(S(=O)(=O)O)c3cc(S(=O)(=O)O)cc(S(=O)(=O)O)c23)cc1NC(=O)c1cccc(NC(=O)Nc2cccc(C(=O)Nc3cc(C(=O)Nc4ccc(S(=O)(=O)O)c5cc(S(=O)(=O)O)cc(S(=O)(=O)O)c45)ccc3C)c2)c1 [SURAMIN]
- GI50 (786-0): 74.6 µM (inactive)
- GI50 (A498): > 84.3 µM (inactive)
- GI50 (ACHN): 97.9 µM (inactive)
- GI50 (CAKI-1): 73.5 µM (inactive)
- GI50 (EKVX): > 69.5 µM (inactive)
- GI50 (HCT-116): 76 µM (inactive)
- GI50 (HCT-15): 90.8 µM
- GI50 (HOP-92): 54.5 µM (inactive)
- GI50 (IGROV-1): 69.3 µM (inactive)
- GI50 (MDA-MB-435): > 100 µM (inactive)
- GI50 (NCI-H460): > 80.5 µM (inactive)
- GI50 (NCI/ADR-RES): > 100 µM (inactive)
- GI50 (OVCAR-3): > 93.3 µM (inactive)
- GI50 (OVCAR-8): 74.8 µM (inactive)
- GI50 (RPMI-8226): > 100 µM (inactive)
- GI50 (SF-295): 69 µM (inactive)
- GI50 (SK-MEL-2): 58.9 µM (inactive)
- GI50 (SR): 69.3 µM (inactive)
- GI50 (TK-10): 32 µM (inactive)
- GI50 (UACC-257): > 100 µM (inactive)

Compound: CN(C)CCNS(=O)(=O)N(C)C
- GI50 (786-0): > 100 µM (inactive)
- GI50 (A498): > 100 µM (inactive)
- GI50 (ACHN): > 100 µM (inactive)
- GI50 (CAKI-1): > 100 µM (inactive)
- GI50 (EKVX): > 100 µM (inactive)
- GI50 (HCT-116): > 100 µM (inactive)
- GI50 (HCT-15): > 100 µM
- GI50 (HOP-92): > 100 µM (inactive)
- GI50 (IGROV-1): > 100 µM (inactive)
- GI50 (MDA-MB-435): > 100 µM (inactive)
- GI50 (NCI-H460): > 100 µM (inactive)
- GI50 (NCI/ADR-RES): > 100 µM (inactive)
- GI50 (OVCAR-3): > 100 µM (inactive)
- GI50 (OVCAR-8): > 100 µM (inactive)
- GI50 (RPMI-8226): > 100 µM (inactive)
- GI50 (SF-295): > 100 µM (inactive)
- GI50 (SK-MEL-2): > 100 µM (inactive)
- GI50 (SR): > 100 µM (inactive)
- GI50 (TK-10): > 100 µM (inactive)
- GI50 (UACC-257): > 100 µM (inactive)

Compound: CCOC(=O)C(C(=O)OCC)=C1NC2(c3ccccc3Nc3ccc(C)cc32)C(C#N)S1 (stereo not given)
- GI50 (786-0): 6.79 µM (inactive)
- GI50 (A498): 10.3 µM (inactive)
- GI50 (ACHN): 3.47 µM (inactive)
- GI50 (CAKI-1): 11.8 µM (inactive)
- GI50 (EKVX): 8.83 µM (inactive)
- GI50 (HCT-116): 5.58 µM (inactive)
- GI50 (HCT-15): 6 µM
- GI50 (HOP-92): 4.26 µM (inactive)
- GI50 (IGROV-1): 7.36 µM (inactive)
- GI50 (MDA-MB-435): 5.65 µM (inactive)
- GI50 (NCI-H460): 3.27 µM (inactive)
- GI50 (NCI/ADR-RES): 5.2 µM (inactive)
- GI50 (OVCAR-3): 3.39 µM (inactive)
- GI50 (OVCAR-8): 8.61 µM (inactive)
- GI50 (RPMI-8226): 2.32 µM (inactive)
- GI50 (SF-295): 9.59 µM (inactive)
- GI50 (SK-MEL-2): 8.07 µM (inactive)
- GI50 (SR): 2.44 µM (inactive)
- GI50 (TK-10): 8.47 µM (inactive)
- GI50 (UACC-257): 11.3 µM (inactive)

Compound: NC(CSc1nc2ccccn2c1[N+](=O)[O-])C(=O)O (stereo not given)
- GI50 (786-0): > 100 µM (inactive)
- GI50 (A498): > 100 µM (inactive)
- GI50 (ACHN): > 100 µM (inactive)
- GI50 (CAKI-1): > 100 µM (inactive)
- GI50 (EKVX): > 100 µM (inactive)
- GI50 (HCT-116): > 100 µM (inactive)
- GI50 (HCT-15): > 100 µM
- GI50 (HOP-92): > 100 µM (inactive)
- GI50 (IGROV-1): > 100 µM (inactive)
- GI50 (MDA-MB-435): > 100 µM (inactive)
- GI50 (NCI-H460): > 100 µM (inactive)
- GI50 (NCI/ADR-RES): > 100 µM (inactive)
- GI50 (OVCAR-3): > 100 µM (inactive)
- GI50 (OVCAR-8): > 100 µM (inactive)
- GI50 (RPMI-8226): > 100 µM (inactive)
- GI50 (SF-295): > 100 µM (inactive)
- GI50 (SK-MEL-2): > 100 µM (inactive)
- GI50 (SR): 61.1 µM (inactive)
- GI50 (TK-10): > 100 µM (inactive)
- GI50 (UACC-257): > 100 µM (inactive)

Compound: C=CCOC(=O)N1c2ccc(O[Si](C)(C)C(C)(C)C)cc2[C@@]23O[C@@]24[C@@H]1C#C/C=C\C#C[C@]3(O)C(OC)(OC)C[C@@H]4C
- GI50 (786-0): 43.5 µM (inactive)
- GI50 (A498): 1.31 µM (inactive)
- GI50 (ACHN): 10.6 µM (inactive)
- GI50 (CAKI-1): 2.71 µM (inactive)
- GI50 (EKVX): > 38.5 µM (inactive)
- GI50 (HCT-116): 8.38 µM (inactive)
- GI50 (HCT-15): > 100 µM
- GI50 (HOP-92): 18.2 µM (inactive)
- GI50 (IGROV-1): > 100 µM (inactive)
- GI50 (MDA-MB-435): > 85.1 µM (inactive)
- GI50 (NCI-H460): 11.5 µM (inactive)
- GI50 (NCI/ADR-RES): 41.6 µM (inactive)
- GI50 (OVCAR-3): 5.55 µM (inactive)
- GI50 (OVCAR-8): > 53.8 µM (inactive)
- GI50 (RPMI-8226): 18.6 µM (inactive)
- GI50 (SF-295): > 34.1 µM (inactive)
- GI50 (SK-MEL-2): > 100 µM (inactive)
- GI50 (SR): 33.9 µM (inactive)
- GI50 (TK-10): > 30.5 µM (inactive)
- GI50 (UACC-257): 19 µM (inactive)

Compound: O=C1CNc2cc(N3CCN(c4ccccc4)CC3)ccc2N1
- GI50 (786-0): > 100 µM (inactive)
- GI50 (A498): > 100 µM (inactive)
- GI50 (ACHN): > 100 µM (inactive)
- GI50 (CAKI-1): > 100 µM (inactive)
- GI50 (EKVX): 34.1 µM (inactive)
- GI50 (HCT-116): > 100 µM (inactive)
- GI50 (HCT-15): > 100 µM
- GI50 (HOP-92): > 100 µM (inactive)
- GI50 (IGROV-1): > 100 µM (inactive)
- GI50 (MDA-MB-435): > 100 µM (inactive)
- GI50 (NCI-H460): > 100 µM (inactive)
- GI50 (NCI/ADR-RES): > 100 µM (inactive)
- GI50 (OVCAR-3): > 100 µM (inactive)
- GI50 (OVCAR-8): > 100 µM (inactive)
- GI50 (RPMI-8226): > 100 µM (inactive)
- GI50 (SF-295): > 100 µM (inactive)
- GI50 (SK-MEL-2): > 100 µM (inactive)
- GI50 (SR): > 100 µM (inactive)
- GI50 (TK-10): > 100 µM (inactive)
- GI50 (UACC-257): > 100 µM (inactive)

Compound: O=C(O)CS(=O)(=O)C(c1ccccc1)c1ccccc1
- GI50 (786-0): > 100 µM (inactive)
- GI50 (A498): > 100 µM (inactive)
- GI50 (ACHN): > 100 µM (inactive)
- GI50 (CAKI-1): > 100 µM (inactive)
- GI50 (EKVX): > 100 µM (inactive)
- GI50 (HCT-116): > 100 µM (inactive)
- GI50 (HCT-15): > 100 µM
- GI50 (HOP-92): > 100 µM (inactive)
- GI50 (IGROV-1): > 100 µM (inactive)
- GI50 (MDA-MB-435): > 100 µM (inactive)
- GI50 (NCI-H460): > 100 µM (inactive)
- GI50 (NCI/ADR-RES): > 100 µM (inactive)
- GI50 (OVCAR-3): > 100 µM (inactive)
- GI50 (OVCAR-8): > 100 µM (inactive)
- GI50 (RPMI-8226): > 100 µM (inactive)
- GI50 (SF-295): > 100 µM (inactive)
- GI50 (SK-MEL-2): > 100 µM (inactive)
- GI50 (SR): > 100 µM (inactive)
- GI50 (TK-10): > 100 µM (inactive)
- GI50 (UACC-257): > 100 µM (inactive)

Compound: COc1ccnc2c1C(=O)c1nc3ccccc3c3ccnc-2c13
- GI50 (786-0): 0.221 µM (active)
- GI50 (A498): 0.0859 µM (active)
- GI50 (ACHN): 0.0634 µM (active)
- GI50 (CAKI-1): 0.181 µM (active)
- GI50 (EKVX): 0.284 µM (active)
- GI50 (HCT-116): 0.0902 µM (active)
- GI50 (HCT-15): < 0.01 µM
- GI50 (HOP-92): 0.342 µM (active)
- GI50 (IGROV-1): 0.177 µM (active)
- GI50 (MDA-MB-435): 0.396 µM (active)
- GI50 (NCI-H460): 0.0232 µM (active)
- GI50 (NCI/ADR-RES): 0.0713 µM (active)
- GI50 (OVCAR-3): 0.0353 µM (active)
- GI50 (OVCAR-8): 0.0512 µM (active)
- GI50 (RPMI-8226): 0.201 µM (active)
- GI50 (SF-295): 0.169 µM (active)
- GI50 (SK-MEL-2): 0.789 µM (active)
- GI50 (SR): 0.0343 µM (active)
- GI50 (TK-10): 0.324 µM (active)
- GI50 (UACC-257): 0.198 µM (active)
